The values below are quoted from earlier work in US20060014732A1, “Use of targeted oxidative therapeutic formulation in treatment of burns” (priority 2004, published 2006).

The test system of data set [1] is multiple-drug resistant strain of Staphylococcus aureus. Particulars: growing culture of S. aureus, 8 hours, with or without illumination.
Data set [2] relates to E. coli. Particulars: increasing concentration of peroxide ex-vivo in rabbit or human blood.
Data set [3] has as its system peroxide-sensitive E. coli. Particulars: infused into the blood.

As to `CC1=C(CCC(=O)O)c2cc3nc(cc4[nH]c(cc4C)cc4[nH]c(cc1n2)cc4C)C(C)=C3CCC(=O)O` [deuteroporphyrin], in data set [1], the “bactericidal effect in culture” value is listed as “strongly bactericidal only after photosensitization”.

`OO` [hydrogen peroxide, Hydrogen peroxide]: in data set [2], the direct bactericidal activity entry is listed as “no evidence of direct bactericidal activity”. The bactericidal effect result in data set [3] is “no bactericidal effect”.

hemin: the “bactericidal effect in culture” value in data set [1] is listed as “moderately bactericidal but light independent”.
